In this test the target is T1, GST-RIPK1 (recombinant GST-RIPK1 kinase domain (residues 1-327)) (Homo sapiens, UniProt Q13546).
T1 construct: recombinant GST-RIPK1 kinase domain (residues 1-327) enzyme produced from baculovirus-transfected Sf21 cells; host or cells: baculovirus-transfected Sf21 insect cells
T1 sequence (Q13546 1-327): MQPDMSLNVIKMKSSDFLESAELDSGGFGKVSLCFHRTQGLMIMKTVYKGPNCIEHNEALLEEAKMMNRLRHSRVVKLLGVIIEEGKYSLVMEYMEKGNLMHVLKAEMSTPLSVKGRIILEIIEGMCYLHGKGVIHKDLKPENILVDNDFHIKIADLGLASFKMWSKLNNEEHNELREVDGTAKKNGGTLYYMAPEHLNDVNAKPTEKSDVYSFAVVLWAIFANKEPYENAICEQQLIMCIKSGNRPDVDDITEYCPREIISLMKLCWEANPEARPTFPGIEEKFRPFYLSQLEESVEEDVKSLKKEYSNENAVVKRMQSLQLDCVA
Briefly: RIPK1-ADP-Glo Enzymatic Assay. The test is classed as biochemical. As to conditions: ten-point titration, top compound concentration of 100000 nM; 25 nM GST-RIPK1, 300 μM ATP, 3 μM dephosphorylated-MBP; 30 min pre-incubation, 150 min reaction. In a few lines: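 ADP-Glo luminescence quantifies ADP formed over 150 minutes by 25 nM Sf21-produced GST-RIPK1 (1-327) using 300 μM ATP and 3 μM dephosphorylated MBP, following 30-minute compound preincubation at 1% DMSO. Ten-point 1:3 series from 100000 nM gave EC50 via four-parameter sigmoidal regression.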

The text below walks through data of patent US20250154173A1 (Merck Sharp & Dohme LLC, priority 2023, published 2025).

The EC50 is the midpoint of the concentration-response curve.

Turning to `N#Cc1cc(F)cc(OC2CC3(C2)O[C@@H]2CC[C@@H](c4cnccn4)N2C3=O)c1` (stereo partly drawn) [Example 19.4, 3-fluoro-5-{[(5′S,7a′R)-3′-oxo-5′-(pyrazin-2-yl)tetrahydro-3′H-spiro[cyclobutane-1,2′-pyrrolo[2,1-b][1,3]oxazol]-3-yl]oxy}benzonitrile], the EC50 is 33 nM.
With `O=C1N2[C@@H](CC[C@H]2c2cnccn2)OC12CC(Oc1ccc(F)c(F)c1)C2` (stereo partly drawn) [Example 19.5, (5′S,7a′R)-3-(3,4-difluorophenoxy)-5′-(pyrazin-2-yl)tetrahydro-3′H-spiro[cyclobutane-1,2′-pyrrolo[2,1-b][1,3]oxazol]-3′-one], the EC50 came out at 11 nM.
On to `Cn1ccc([C@@H]2CC[C@H]3O[C@]4(C[C@@H](Oc5cccc(C#N)c5)C4)C(=O)N32)n1` [Example 19.6, 3-{[(1s,3S,5′S,7a′R)-5′-(1-methyl-1H-pyrazol-3-yl)-3′-oxotetrahydro-3′H-spiro[cyclobutane-1,2′-pyrrolo[2,1-b][1,3]oxazol]-3-yl]oxy}benzonitrile], for which the EC50 was determined as 203 nM.
For `Cc1ccc(OC2CC3(C2)O[C@@H]2CC[C@@H](c4ccn(C)n4)N2C3=O)cn1` (stereo partly drawn) [Example 19.7, (5′S,7a′R)-5′-(1-methyl-1H-pyrazol-3-yl)-3-[(6-methylpyridin-3-yl)oxy]tetrahydro-3′H-spiro[cyclobutane-1,2′-pyrrolo[2,1-b][1,3]oxazol]-3′-one] the value was 531 nM; for `Cn1ccc([C@@H]2CC[C@H]3OC4(CC(Oc5cccnc5)C4)C(=O)N32)n1` (stereo partly drawn) [Example 19.8, (5′S,7a′R)-5′-(1-methyl-1H-pyrazol-3-yl)-3-[(pyridin-3-yl)oxy]tetrahydro-3′H-spiro[cyclobutane-1,2′-pyrrolo[2,1-b][1,3]oxazol]-3′-one], 474 nM.
For `Cn1ccc([C@@H]2CC[C@H]3OC4(CC(Oc5cncc(Cl)c5)C4)C(=O)N32)n1` (stereo partly drawn) [Example 19.9, (5′S,7a′R)-3-[(5-chloropyridin-3-yl)oxy]-5′-(1-methyl-1H-pyrazol-3-yl)tetrahydro-3′H-spiro[cyclobutane-1,2′-pyrrolo[2,1-b][1,3]oxazol]-3′-one], the EC50 turned out to be 397 nM.
Take `Cn1ccc([C@@H]2CC[C@H]3OC4(CC(Oc5cccc(-c6ccnn6C)c5)C4)C(=O)N32)n1` (stereo partly drawn) [Example 19.10, (5′S,7a′R)-5′-(1-methyl-1H-pyrazol-3-yl)-3-[3-(1-methyl-1H-pyrazol-5-yl)phenoxy]tetrahydro-3′H-spiro[cyclobutane-1,2′-pyrrolo[2,1-b][1,3]oxazol]-3′-one]: the EC50 amounted to 30 nM.
Consider `Cn1ccc([C@@H]2CC[C@H]3OC4(CC(Oc5cccnc5)C4)C(=O)N32)n1` (stereo partly drawn) [Example 19.11, (5′S,7a′R)-5′-(1-methyl-1H-pyrazol-3-yl)-3-[(pyridin-3-yl)oxy]tetrahydro-3′H-spiro[cyclobutane-1,2′-pyrrolo[2,1-b][1,3]oxazol]-3′-one], for which the EC50 worked out at 209 nM.
Turning to `Cc1ccc(OC2CC3(C2)O[C@@H]2CC[C@@H](c4ccn(C)n4)N2C3=O)cn1` (stereo partly drawn) [Example 19.12, (5′S,7a′R)-5′-(1-methyl-1H-pyrazol-3-yl)-3-[(6-methylpyridin-3-yl)oxy]tetrahydro-3′H-spiro[cyclobutane-1,2′-pyrrolo[2,1-b][1,3]oxazol]-3′-one], the EC50 came to 790 nM.
Regarding `Cn1nccc1-c1cccc(OC2CC3(C2)O[C@@H]2CC[C@@H](c4cnccn4)N2C3=O)c1` (stereo partly drawn) [Example 19.13, (5′S,7a′R)-3-[3-(1-methyl-1H-pyrazol-5-yl)phenoxy]-5′-(pyrazin-2-yl)tetrahydro-3′H-spiro[cyclobutane-1,2′-pyrrolo[2,1-b][1,3]oxazol]-3′-one], the EC50 worked out at 15 nM.
Turning to `Cn1nccc1-c1cccc(OC2CC3(C2)O[C@@H]2CC[C@@H](c4cnccn4)N2C3=O)c1` (stereo partly drawn) [Example 19.14, (5′S,7a′R)-3-[3-(1-methyl-1H-pyrazol-5-yl)phenoxy]-5′-(pyrazin-2-yl)tetrahydro-3′H-spiro[cyclobutane-1,2′-pyrrolo[2,1-b][1,3]oxazol]-3′-one], the EC50 came to 16 nM.
In the case of `N#Cc1cccc(OC2CC3(C2)O[C@@H]2CC[C@@H](c4cnccn4)N2C3=O)c1` (stereo partly drawn) [Example 19.15, 3-{[(5′S,7a′R)-3′-oxo-5′-(pyrazin-2-yl)tetrahydro-3′H-spiro[cyclobutane-1,2′-pyrrolo[2,1-b][1,3]oxazol]-3-yl]oxy}benzonitrile], the EC50 turned out to be 18 nM.
For `N#Cc1cc(F)cc(OC2CC3(C2)O[C@@H]2CC[C@@H](c4cnccn4)N2C3=O)c1` (some centres unmarked) [Example 19.16], the EC50 was 18 nM.
Consider `O=C1N2[C@@H](CC[C@H]2c2cnccn2)OC12CC(Oc1ccccc1)C2` (stereo partly drawn) [Example 19.17, (5′S,7a′R)-3-phenoxy-5′-(pyrazin-2-yl)tetrahydro-3′H-spiro[cyclobutane-1,2′-pyrrolo[2,1-b][1,3]oxazol]-3′-one], for which the EC50 is 21 nM.
With `O=C1N2[C@@H](CC[C@H]2c2cnccn2)OC12CC(Oc1cncc(Cl)c1)C2` (stereo partly drawn) [Example 19.18, (5′S,7a′R)-3-[(5-chloropyridin-3-yl)oxy]-5′-(pyrazin-2-yl)tetrahydro-3′H-spiro[cyclobutane-1,2′-pyrrolo[2,1-b][1,3]oxazol]-3′-one], the EC50 turned out to be 23 nM.
Consider `O=C1N2[C@@H](CC[C@H]2c2cnccn2)OC12CC(OCc1csc3ncccc13)C2` (stereo partly drawn) [Example 19.19, (5′S,7a′R)-5′-(pyrazin-2-yl)-3-[(thieno[2,3-b]pyridin-3-yl)methoxy]tetrahydro-3′H-spiro[cyclobutane-1,2′-pyrrolo[2,1-b][1,3]oxazol]-3′-one], for which the EC50 stood at 27 nM.
Take `Cn1nccc1-c1cc(OC2CC3(C2)O[C@@H]2CC[C@@H](c4cnccn4)N2C3=O)ncn1` (stereo partly drawn) [Example 19.20, (5′S,7a′R)-3-{[6-(1-methyl-1H-pyrazol-5-yl)pyrimidin-4-yl]oxy}-5′-(pyrazin-2-yl)tetrahydro-3′H-spiro[cyclobutane-1,2′-pyrrolo[2,1-b][1,3]oxazol]-3′-one]: the EC50 came to 13 nM.
Take `O=C1N2[C@@H](CC[C@H]2c2cnccn2)OC12CC(Oc1cccnc1)C2` (stereo partly drawn) [Example 19.21, (5′S,7a′R)-5′-(pyrazin-2-yl)-3-[(pyridin-3-yl)oxy]tetrahydro-3′H-spiro[cyclobutane-1,2′-pyrrolo[2,1-b][1,3]oxazol]-3′-one]: the 50% effective concentration (EC50) came to 27 nM.
Take `O=C1N2[C@@H](CC[C@H]2c2cnccn2)OC12CC(Oc1ccc(F)c(F)c1)C2` (stereo partly drawn) [Example 19.22, (5′S,7a′R)-3-(3,4-difluorophenoxy)-5′-(pyrazin-2-yl)tetrahydro-3′H-spiro[cyclobutane-1,2′-pyrrolo[2,1-b][1,3]oxazol]-3′-one]: the EC50 worked out at 12 nM.
Turning to `Cc1cccnc1CO[C@H]1C[C@]2(C1)O[C@@H]1CC[C@@H](c3cnccn3)N1C2=O` [Example 20.1, (5′S,7a′R)-3-((3-methylpyridin-2-yl)methoxy)-5′-(pyrazin-2-yl)tetrahydro-3′H-spiro[cyclobutane-1,2′-pyrrolo[2,1-b]oxazol]-3′-one], the EC50 worked out at 664 nM.
For `O=C1N2[C@@H](CC[C@H]2c2cnccn2)OC12CC(OCc1ccccn1)C2` (stereo partly drawn) [Example 20.2, (5′S,7a′R)-5′-(pyrazin-2-yl)-3-[(pyridin-2-yl)methoxy]tetrahydro-3′H-spiro[cyclobutane-1,2′-pyrrolo[2,1-b][1,3]oxazol]-3′-one] the value was 196 nM.
With `Cn1cc2cc(COC3CC4(C3)O[C@@H]3CC[C@@H](c5cnccn5)N3C4=O)ccc2n1` (stereo partly drawn) [Example 20.3, (5′S,7a′R)-3-[(2-methyl-2H-indazol-5-yl)methoxy]-5′-(pyrazin-2-yl)tetrahydro-3′H-spiro[cyclobutane-1,2′-pyrrolo[2,1-b][1,3]oxazol]-3′-one], the EC50 came out at 126 nM.
With `O=C1N2[C@@H](CC[C@H]2c2cnccn2)OC12CC(OCc1ccnc3nncn13)C2` (stereo partly drawn) [Example 20.4, (5′S,7a′R)-5′-(pyrazin-2-yl)-3-[([1,2,4]triazolo[4,3-a]pyrimidin-5-yl)methoxy]tetrahydro-3′H-spiro[cyclobutane-1,2′-pyrrolo[2,1-b][1,3]oxazol]-3′-one], the EC50 worked out at 179 nM.
Consider `Cc1ncccc1COC1CC2(C1)O[C@@H]1CC[C@@H](c3cnccn3)N1C2=O` (stereo partly drawn) [Example 20.5, (5′S,7a′R)-3-[(2-methylpyridin-3-yl)methoxy]-5′-(pyrazin-2-yl)tetrahydro-3′H-spiro[cyclobutane-1,2′-pyrrolo[2,1-b][1,3]oxazol]-3′-one], for which the EC50 was 74 nM.
Take `O=C1N2[C@@H](CC[C@H]2c2cnccn2)OC12CC(OCc1cccnc1C(F)(F)F)C2` (stereo partly drawn) [Example 20.6, (5′S,7a′R)-5′-(pyrazin-2-yl)-3-{[2-(trifluoromethyl)pyridin-3-yl]methoxy}tetrahydro-3′H-spiro[cyclobutane-1,2′-pyrrolo[2,1-b][1,3]oxazol]-3′-one]: the EC50 was 86 nM.
`O=C1N2[C@@H](CC[C@H]2c2cnccn2)OC12CC(OCc1ccc3scnc3c1)C2` (stereo partly drawn) [Example 20.7, (5′S,7a′R)-3-[(1,3-benzothiazol-5-yl)methoxy]-5′-(pyrazin-2-yl)tetrahydro-3′H-spiro[cyclobutane-1,2′-pyrrolo[2,1-b][1,3]oxazol]-3′-one]: the EC50 was 86 nM.
